Reference: publication PMC9205463 (Cell reports, 2022)

Molecular target: DDX41 (Homo sapiens, UniProt Q9UJV9)
Settings: labelled compound ([γ-32P]ATP)

Sequence of DDX41 (Q9UJV9 whole entry): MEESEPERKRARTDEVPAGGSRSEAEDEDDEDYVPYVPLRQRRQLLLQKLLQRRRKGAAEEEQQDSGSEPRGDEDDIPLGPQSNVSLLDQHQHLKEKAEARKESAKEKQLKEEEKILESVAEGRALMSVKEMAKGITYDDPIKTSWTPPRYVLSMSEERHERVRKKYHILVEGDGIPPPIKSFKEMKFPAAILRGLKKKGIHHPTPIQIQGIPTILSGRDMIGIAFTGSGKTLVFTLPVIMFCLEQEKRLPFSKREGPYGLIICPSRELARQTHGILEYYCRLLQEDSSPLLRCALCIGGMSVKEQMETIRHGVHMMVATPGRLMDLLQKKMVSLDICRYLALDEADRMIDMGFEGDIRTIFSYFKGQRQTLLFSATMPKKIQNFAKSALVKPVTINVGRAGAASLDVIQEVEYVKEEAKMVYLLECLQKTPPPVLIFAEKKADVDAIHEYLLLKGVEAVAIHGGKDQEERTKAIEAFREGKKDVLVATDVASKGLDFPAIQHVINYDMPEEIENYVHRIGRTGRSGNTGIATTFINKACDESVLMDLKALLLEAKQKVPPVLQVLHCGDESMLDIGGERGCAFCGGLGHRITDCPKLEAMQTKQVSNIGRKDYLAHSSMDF

For `Nc1ncnc2c1ncn2[C@@H]1O[C@H](COP(=O)(O)OP(=O)(O)OP(=O)(O)O)[C@@H](O)[C@H]1O` [ATP], the “filter binding (dot blot); ATP-agarose pull-down” value was “we incubated the same amount of WT or R525H proteins with ATP agarose”.
